For data set [1], the system named is chronic HBV infection. The note with it: after 48 weeks of therapy; cited from earlier work.
Data set [2] concerns chronic HBV infection. The note with it: cited from earlier work.
Data set [3] concerns chronic HBV infection. The note with it: PEG-IFNα add-on therapy; cited from earlier work.
The subject of the next data set is HBV. In words: Preclinical pharmacology of SIRNA01 against HBV. The source says:
In some embodiments, the siRNA that targets HBV mRNA is SIRNA01. SIRNA01 is a synthetic, chemically modified siRNA targeting HBV RNA with a covalently attached triantennary N-acetyl-galactosamine (GalNAc) ligand that allows for specific uptake by hepatocytes. […] An SIRNA can have multiple antiviral effects, including degradation of the pgRNA, thus inhibiting viral replication, and degradation of all viral mRNA transcripts, thereby preventing expression of viral proteins. This may result in the return of a functional immune response directed against HBV, either alone or in combination with other therapies. The ability of SIRNA01 to reduce HBsAg-containing noninfectious subviral particles also distinguishes it from currently available treatments.
SIRNA01 targets and inhibits expression of an mRNA encoded by an HBV genome according to NCBI Reference Sequence NC_003977.2 (GenBank Accession No. GI:21326584) (SEQ ID NO:1). More specifically, SIRNA01 targets an mRNA encoded by a portion of the HBV genome comprising the sequence […] (SEQ ID NO:2), which corresponds to nucleotides 1579-1597 of SEQ ID NO:1. Because transcription of the HBV genome results in polycistronic, overlapping RNAs, SIRNA01 results in significant inhibition of expression of most or all HBV transcripts.

The test system of data set [4] is chronic HBV infection. The note with it: patients with chronic HBV infection; cited from earlier work.
Another data set has as its target HBsAg (Hepatitis B virus genotype D subtype ayw, UniProt P03138). In words: Activity measured diagnostically with an immunoassay. The format is binding. The source says:
(§1) In certain embodiments, the anti-HBV antibody is HBC34 or an engineered variant thereof. HBC34 are human antibodies against HBsAg with high neutralizing activity. […] The activity of HBC34, as measured diagnostically with an immunoassay, is 5000 IU/mg. As a comparison, the activity of HBIG is ˜1 IU/mg.

For another data set, the system named is antigenic loop of HBsAg. In words: Binding of HBC34 to HBsAg antigenic loop, genotypes and mutants. Details: species or system HBV.
From the text: as §1

Consider three substances from US20250320497A1, “COMPOSITIONS AND METHODS FOR TREATING HEPATITIS B VIRUS (HBV) INFECTION AND HBV-ASSOCIATED DISEASES” (priority 2022, published 2025).

For peginterferon-alfa-2a [PEG-IFNα], the “percentage of patients with long-term viral control” value in the data set on chronic HBV infection [1] was less than 10%. Moreover, the “HBsAg loss, patients overall” value in the data set on chronic HBV infection [2] (PEG-IFNα 180 g administered weekly for 48-52 weeks, approximately) is on record as no more than 10%. The “rate of HBsAg loss, subset with low baseline HBsAg” value in the data set on chronic HBV infection [2] (baseline HBsAg less than approximately 1,000-1,500 IU/mL, with or without an NRTI) is 20-40%. For the same substance, the “mean HBsAg reduction at Week 24” value in the data set on chronic HBV infection [3] is 0.57 log10 IU/mL.

Regarding “SIRNA01: synthetic, chemically modified GalNAc-conjugated siRNA targeting HBV RNA; sense strand SEQ ID NO:5, antisense strand SEQ ID NO:6 (sense GUGUGCACUUCGCUUCACA; antisense UGUGAAGCGAAGUGCACACUU; GalNAc-conjugated, chemically modified, pattern not given here)”, the “pharmacological activity against HBV genotypes” value in the data set on HBV is “pharmacologically active against HBV genotypes A through J”. Also, the “effect in preclinical models” value with HBV (preclinical models) is “inhibit viral replication, translation, and secretion of HBsAg”. The “reduction in HBsAg when administered individually” value with chronic HBV infection [4] is listed as “substantial reductions in HBsAg”.

“HBC34: human antibody against HBsAg with high neutralizing activity; HC SEQ ID NO:56, LC SEQ ID NO:58”: the “activity, as measured diagnostically with an immunoassay” value with HBsAg amounted to 5000 IU/mg. Besides, in the data set on antigenic loop of HBsAg, the “HBV genotypes and mutants recognized” value is “all 10 HBV genotypes and 18 mutants”; the “affinity of binding to the antigenic loop of HBsAg” value is listed as “pM range”.
